ChEMBL document CHEMBL5528083, “Discovery of a Novel Thienopyrimidine Compound as a Urate Transporter 1 and Glucose Transporter 9 Dual Inhibitor with Improved Efficacy and Favorable Druggability” (J Med Chem, 2024)

Experiments:
[1] = species: Mus musculus; test: Reduction in serum uric acid level in acute hyperuricemia state Kunming mouse model assessed as SUA level by measuring decrease ratio relative to control; assay type: functional; set-up: concentration or dose not given beside the values
[2] = species: Mus musculus; test: Reduction in serum uric acid level in acute hyperuricemia state Kunming mouse model assessed as SUA level; assay type: functional
[3] = test system: Mus musculus; test: Reduction in serum uric acid level in acute hyperuricemia state Kunming mouse model assessed as SUA level at 2 mg/kg, po (reference value: 1037 +/- 106.59 uM); assay type: functional
[4] = target: T1, Solute carrier family 22 member 12 (Homo sapiens, UniProt Q96S37); test: Inhibition of human URAT1 expressed in HEK293T cells using 14C- uric acid assessed as uric acid absorption by measuring intracellular liquid radiation value by liquid scintillation counting analysis; assay type: cell-based
T1 sequence (Q96S37 whole entry): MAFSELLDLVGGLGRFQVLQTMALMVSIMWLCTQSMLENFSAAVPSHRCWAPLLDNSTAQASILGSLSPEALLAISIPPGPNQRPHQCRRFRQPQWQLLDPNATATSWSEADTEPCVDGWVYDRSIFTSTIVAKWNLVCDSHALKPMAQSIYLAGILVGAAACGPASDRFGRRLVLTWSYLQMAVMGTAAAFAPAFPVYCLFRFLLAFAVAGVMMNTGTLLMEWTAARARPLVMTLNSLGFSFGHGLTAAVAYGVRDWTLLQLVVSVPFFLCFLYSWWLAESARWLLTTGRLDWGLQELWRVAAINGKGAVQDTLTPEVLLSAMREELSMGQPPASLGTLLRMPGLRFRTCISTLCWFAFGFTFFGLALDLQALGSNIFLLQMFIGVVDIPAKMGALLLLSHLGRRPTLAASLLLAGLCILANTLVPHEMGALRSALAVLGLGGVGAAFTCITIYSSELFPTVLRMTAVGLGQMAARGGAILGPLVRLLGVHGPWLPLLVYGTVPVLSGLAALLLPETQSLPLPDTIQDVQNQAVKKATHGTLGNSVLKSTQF

[5] = target: T2, Solute carrier family 2, facilitated glucose transporter member 9 (Mus musculus) (UniProt Q3T9X0); test: Inhibition of mouse EGFP-tagged GLUT9 expressed in HEK293T cells assessed as inhibition rate by measuring relative current at 5 uM by patch clamp electrophysiological analysis relative to control; assay type: cell-based; set-up: scale not given: the % may be the effect or the level left
T2 sequence (whole entry): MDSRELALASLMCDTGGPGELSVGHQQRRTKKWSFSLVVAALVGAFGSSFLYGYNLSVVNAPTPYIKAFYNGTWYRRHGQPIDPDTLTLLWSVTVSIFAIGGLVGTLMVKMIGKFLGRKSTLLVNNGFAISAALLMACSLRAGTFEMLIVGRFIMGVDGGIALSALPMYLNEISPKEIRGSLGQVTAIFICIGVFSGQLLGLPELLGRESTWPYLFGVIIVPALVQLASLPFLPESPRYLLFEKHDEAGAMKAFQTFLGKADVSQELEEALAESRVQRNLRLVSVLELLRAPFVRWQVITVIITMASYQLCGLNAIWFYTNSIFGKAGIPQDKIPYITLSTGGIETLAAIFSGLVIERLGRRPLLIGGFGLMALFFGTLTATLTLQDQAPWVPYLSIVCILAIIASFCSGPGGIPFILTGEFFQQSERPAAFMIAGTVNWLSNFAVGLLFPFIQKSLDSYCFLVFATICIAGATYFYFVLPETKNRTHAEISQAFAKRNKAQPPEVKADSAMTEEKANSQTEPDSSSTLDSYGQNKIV

[6] = target: Xanthine dehydrogenase/oxidase (Bos taurus, UniProt P80457); test: Inhibition of bovine XOD using xanthine as substrate assessed as inhibitory ratio at 10 uM by spectrophotometric analysis relative to control; details: cattle
Xanthine dehydrogenase/oxidase, sequence (P80457 whole entry): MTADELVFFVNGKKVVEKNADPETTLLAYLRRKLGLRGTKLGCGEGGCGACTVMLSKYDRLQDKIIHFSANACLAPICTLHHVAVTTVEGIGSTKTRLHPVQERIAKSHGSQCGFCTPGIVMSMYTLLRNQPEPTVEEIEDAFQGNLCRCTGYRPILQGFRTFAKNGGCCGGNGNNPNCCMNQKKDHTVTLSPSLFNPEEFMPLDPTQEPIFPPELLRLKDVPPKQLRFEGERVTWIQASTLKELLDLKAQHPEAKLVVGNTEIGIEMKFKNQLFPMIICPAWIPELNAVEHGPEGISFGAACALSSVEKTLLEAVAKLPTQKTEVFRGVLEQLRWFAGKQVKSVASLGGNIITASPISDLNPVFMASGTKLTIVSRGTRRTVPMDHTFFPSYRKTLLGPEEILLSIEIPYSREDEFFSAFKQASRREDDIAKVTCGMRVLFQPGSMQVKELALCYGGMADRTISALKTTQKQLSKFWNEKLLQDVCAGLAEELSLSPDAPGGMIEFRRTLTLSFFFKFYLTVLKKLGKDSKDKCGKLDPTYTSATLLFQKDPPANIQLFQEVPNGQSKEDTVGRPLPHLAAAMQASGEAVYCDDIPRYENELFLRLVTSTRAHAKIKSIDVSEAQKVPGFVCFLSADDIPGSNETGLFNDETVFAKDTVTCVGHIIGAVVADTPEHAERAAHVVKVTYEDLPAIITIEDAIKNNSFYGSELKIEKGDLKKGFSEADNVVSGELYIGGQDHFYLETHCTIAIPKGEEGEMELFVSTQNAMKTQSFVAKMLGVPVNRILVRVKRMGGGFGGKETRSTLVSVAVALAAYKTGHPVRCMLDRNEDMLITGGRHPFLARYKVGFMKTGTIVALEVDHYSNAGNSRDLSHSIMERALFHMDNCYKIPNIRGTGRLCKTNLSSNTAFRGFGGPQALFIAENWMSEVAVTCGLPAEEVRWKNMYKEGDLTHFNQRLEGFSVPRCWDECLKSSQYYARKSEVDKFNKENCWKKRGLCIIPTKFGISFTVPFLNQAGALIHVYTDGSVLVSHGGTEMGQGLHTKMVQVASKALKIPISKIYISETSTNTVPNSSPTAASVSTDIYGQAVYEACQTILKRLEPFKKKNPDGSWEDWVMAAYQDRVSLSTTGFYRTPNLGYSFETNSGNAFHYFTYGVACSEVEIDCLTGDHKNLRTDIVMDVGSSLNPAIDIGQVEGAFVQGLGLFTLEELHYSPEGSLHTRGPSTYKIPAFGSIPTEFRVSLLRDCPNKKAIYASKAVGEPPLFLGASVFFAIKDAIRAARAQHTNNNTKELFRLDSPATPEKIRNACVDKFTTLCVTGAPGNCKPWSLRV

| Structure (SMILES) | Activity [1] | Activity [2] | further results |
| --- | --- | --- | --- |
| O=C(O)CSc1nc(Nc2ccc(C3CC3)c3ccccc23)c2ccsc2n1 | 74.5% | 368.2 µM |  |
| CC(C)(Sc1nc2c(c(Nc3ccc(C4CC4)c4ccccc34)n1)COC2)C(=O)O |  | 1040 µM |  |
| CC(Sc1nc2ncccc2n1-c1ccc(C2CC2)c2ccccc12)C(=O)O (stereo not given) |  |  | Activity [3]: 706.25 µM |
| O=C(O)CCCSc1nc(Nc2ccc(C3CC3)c3ccccc23)c2ccc(F)cc2n1 | 9.9% | 944.6 µM |  |
| CC(C)(Sc1nc2c(c(Nc3ccc(C4CC4)c4ccccc34)n1)SCC2)C(=O)O | 87.5% | 297.2 µM |  |
| CC(Sc1nc(Nc2ccc(C3CC3)c3ccccc23)c2ccccc2n1)C(=O)O (stereo not given) | 21.5% | 911.8 µM |  |
| O=C(O)CSc1nc2c(c(Nc3ccc(C4CC4)c4ccccc34)n1)CCC2 | 24.9% | 831.4 µM |  |
| O=C(O)C1(Sc2nc3c(c(Nc4ccc(C5CC5)c5ccccc45)n2)CCC3)CCC1 | 50.3% | 614.6 µM |  |
| O=C(O)CSc1nc(Nc2ccc(C3CC3)c3ccccc23)c2ccc(F)cc2n1 | 90.6% | 210.4 µM |  |
| O=C(O)C1(Sc2nc3c(c(Nc4ccc(C5CC5)c5ccccc45)n2)COC3)CCC1 | 1.5% | 1021.4 µM |  |
| O=C(O)C1(Sc2nc(Nc3ccc(C4CC4)c4ccccc34)c3ccccc3n2)CCC1 | 51.6% | 608.8 µM |  |
| O=C(O)CSc1nc(Nc2ccc(C3CC3)c3ccccc23)c2ccccc2n1 | 82.9% | 294.2 µM |  |
| COc1cc2nc(SC(C)(C)C(=O)O)nc(Nc3ccc(C4CC4)c4ccccc34)c2cc1OC | 7.8% | 976.2 µM |  |
| CC(Sc1nc2c(c(Nc3ccc(C4CC4)c4ccccc34)n1)CCC2)C(=O)O (stereo not given) | 52.6% | 594.6 µM |  |
| O=C(O)CCCSc1nc(Nc2ccc(C3CC3)c3ccccc23)c2ccsc2n1 | 89.6% | 225 µM |  |
| O=C(O)CCSc1nc(Nc2ccc(C3CC3)c3ccccc23)c2sccc2n1 | 91.3% | 209.6 µM | IC50 [4]: 2.75 µM |
| CCc1oc2ccccc2c1C(=O)c1cc(Br)c(O)c(Br)c1 [BENZBROMARONE] | 37.3% | 753.2 µM | Activity [5]: 74.7% |
| CC(Sc1nc(Nc2ccc(C3CC3)c3ccccc23)c2ccc(F)cc2n1)C(=O)O (stereo not given) | 60.7% | 482.4 µM |  |
| CC(Sc1nc2c(c(Nc3ccc(C4CC4)c4ccccc34)n1)COC2)C(=O)O (stereo not given) | 4.5% | 994.41 µM |  |

| Structure (SMILES) | Activity [1] | Activity [2] | further results |
| --- | --- | --- | --- |
| O=C(O)CCCSc1nc(Nc2ccc(C3CC3)c3ccccc23)c2ccccc2n1 | 64.6% | 478.2 µM |  |
| O=C(O)CCSc1nc(Nc2ccc(C3CC3)c3ccccc23)c2ccccc2n1 | 84.7% | 276.2 µM |  |
| O=C(O)CCCSc1nc2c(c(Nc3ccc(C4CC4)c4ccccc34)n1)SCC2 | 62% | 514.4 µM |  |
| COc1cc2nc(SC(C)C(=O)O)nc(Nc3ccc(C4CC4)c4ccccc34)c2cc1OC (stereo not given) | 1% | 1039.4 µM |  |
| COc1cc2nc(SCCC(=O)O)nc(Nc3ccc(C4CC4)c4ccccc34)c2cc1OC | 23.6% | 828 µM |  |
| CC(C)(Sc1nccc(Nc2ccc(C3CC3)c3ccccc23)n1)C(=O)O | 91% | 212.6 µM | IC50 [4]: 2.51 µM |
| O=C(O)CSc1nc2c(c(Nc3ccc(C4CC4)c4ccccc34)n1)SCC2 | 88.8% | 285.8 µM |  |
| O=C(O)CCSc1nc2c(c(Nc3ccc(C4CC4)c4ccccc34)n1)COC2 | 26.1% | 797.6 µM |  |
| O=C(O)CCSc1nc2c(c(Nc3ccc(C4CC4)c4ccccc34)n1)CCC2 | 95.7% | 226.6 µM | IC50 [4]: 3.75 µM |
| COc1cc2nc(SCC(=O)O)nc(Nc3ccc(C4CC4)c4ccccc34)c2cc1OC | 91.3% | 193.4 µM | IC50 [4]: 4.86 µM |
| CC(C)(Sc1nc(Nc2ccc(C3CC3)c3ccccc23)c2ccccc2n1)C(=O)O | 92.2% | 200.8 µM | IC50 [4]: 4.35 µM |
| COc1cc2nc(SCCCC(=O)O)nc(Nc3ccc(C4CC4)c4ccccc34)c2cc1OC | 62.3% | 465.4 µM |  |
| O=C(O)CCSc1nc(Nc2ccc(C3CC3)c3ccccc23)c2ccsc2n1 | 92.7% | 196.4 µM |  |
| O=C(O)CCSc1nc2c(c(Nc3ccc(C4CC4)c4ccccc34)n1)SCC2 | 3.54% | 1013.8 µM |  |
| CC(Sc1nccc(Nc2ccc(C3CC3)c3ccccc23)n1)C(=O)O (stereo not given) | 88.9% | 234 µM |  |
| O=C(O)CSc1nccc(Nc2ccc(C3CC3)c3ccccc23)n1 | 68.2% | 442.4 µM |  |
| Cc1nc(-c2ccc(OCC(C)C)c(C#N)c2)sc1C(=O)O [FEBUXOSTAT] |  |  | inhibition at 10 µM [6]: 102% |
| O=C(O)C1(Sc2nc3c(c(Nc4ccc(C5CC5)c5ccccc45)n2)SCC3)CCC1 | 3.42% | 1014.8 µM |  |
| CC(C)(Sc1nc(Nc2ccc(C3CC3)c3ccccc23)c2sccc2n1)C(=O)O | 68.5% | 425.4 µM |  |

| Structure (SMILES) | Activity [1] | Activity [2] | further results |
| --- | --- | --- | --- |
| CC(Sc1nc(Nc2ccc(C3CC3)c3ccccc23)c2sccc2n1)C(=O)O (stereo not given) | 69.9% | 412 µM |  |
| O=C(O)CSc1nc2c(c(Nc3ccc(C4CC4)c4ccccc34)n1)COC2 | 2.3% | 1014.4 µM |  |
| O=C(O)C1(Sc2nc(Nc3ccc(C4CC4)c4ccccc34)c3sccc3n2)CCC1 | 34.8% | 744 µM |  |
| CC(Sc1nc(Nc2ccc(C3CC3)c3ccccc23)c2ccsc2n1)C(=O)O (stereo not given) | 20% | 884 µM |  |
| CC(C)(Sc1nc(Nc2ccc(C3CC3)c3ccccc23)c2ccc(F)cc2n1)C(=O)O | 82.4% | 284.8 µM |  |
| O=C(O)CCCSc1nc2c(c(Nc3ccc(C4CC4)c4ccccc34)n1)COC2 |  | 1120.8 µM |  |
| COc1cc2nc(SC3(C(=O)O)CCC3)nc(Nc3ccc(C4CC4)c4ccccc34)c2cc1OC | 89.1% | 214.4 µM |  |
| O=C(O)C1(Sc2nc(Nc3ccc(C4CC4)c4ccccc34)c3ccc(F)cc3n2)CCC1 | 33% | 734.6 µM |  |
| O=C(O)C1(Sc2nccc(Nc3ccc(C4CC4)c4ccccc34)n2)CCC1 | 58.7% | 537.8 µM |  |
| CC(C)(Sc1nc2c(c(Nc3ccc(C4CC4)c4ccccc34)n1)CCC2)C(=O)O | 92.2% | 256.6 µM | IC50 [4]: 3.96 µM |
| O=C(O)CCCSc1nc2c(c(Nc3ccc(C4CC4)c4ccccc34)n1)CCC2 | 22.6% | 851 µM |  |
| O=C(O)CCSc1nc(Nc2ccc(C3CC3)c3ccccc23)c2ccc(F)cc2n1 | 13.5% | 912.4 µM |  |
| O=C(O)CCCSc1nccc(Nc2ccc(C3CC3)c3ccccc23)n1 | 92.4% | 198.2 µM | IC50 [4]: 4.73 µM |
| O=C(O)CSc1nc(Nc2ccc(C3CC3)c3ccccc23)c2sccc2n1 | 1.1% | 1062.6 µM |  |
| CC(C)(Sc1nc(Nc2ccc(C3CC3)c3ccccc23)c2ccsc2n1)C(=O)O | 66.2% | 447.2 µM |  |
| O=C(O)C1(Sc2nc(Nc3ccc(C4CC4)c4ccccc34)c3ccsc3n2)CCC1 | 35.8% | 734.6 µM |  |
| O=C(O)CCSc1nccc(Nc2ccc(C3CC3)c3ccccc23)n1 | 24.6% | 880.2 µM |  |
| CC(Sc1nc2c(c(Nc3ccc(C4CC4)c4ccccc34)n1)SCC2)C(=O)O (stereo not given) |  | 1114.8 µM |  |
